Tests used:
Rattus norvegicus = experiment: Antidiabetic activity in po dosed ZDF fa/fa rat assessed as reduction of glucose excursion administered qd for 25 days by glucose tolerance test; format: functional, organism-based
Canis familiaris = experiment: Oral bioavailability in Beagle dog at 10 mg/kg; format: ADME, organism-based, Canis lupus familiaris; details: in vivo
[1] = Tmax in cynomolgus monkey at 10 mg/kg, po; format: ADME, organism-based, Macaca fascicularis; set-up: dose 10 mg/kg, route oral; details: in vivo

**Q.** Which Activity (Rattus norvegicus) does the source give for `COc1cc(/C=C2\SC(=O)NC2=O)ccc1Oc1ccc(C#N)cc1C(F)(F)F` here?
**A.** Its Activity is “Dose-dependent effect”.

**Q.** What about the F (Canis familiaris) of the same molecule?
**A.** Its F is 91%.

**Q.** What about the Tmax [1] of the same molecule?
**A.** Its Tmax is 7 h.

Source: ChEMBL document CHEMBL1671812, “Identification of diaryl ether-based ligands for estrogen-related receptor α as potential antidiabetic agents” (J Med Chem, 2011)
